{"source": "paper PMC6934184", "about": "“Selective DNA-PKcs inhibition extends the therapeutic index of localized radiotherapy and chemotherapy” (The Journal of Clinical Investigation, 2019)", "target": "T1, SRPK1 (Homo sapiens, UniProt Q96SB4)", "T1 construct": "purchased Thermo Fisher Scientific (Life Technologies) SelectScreen", "T1 sequence (Q96SB4 whole entry)": "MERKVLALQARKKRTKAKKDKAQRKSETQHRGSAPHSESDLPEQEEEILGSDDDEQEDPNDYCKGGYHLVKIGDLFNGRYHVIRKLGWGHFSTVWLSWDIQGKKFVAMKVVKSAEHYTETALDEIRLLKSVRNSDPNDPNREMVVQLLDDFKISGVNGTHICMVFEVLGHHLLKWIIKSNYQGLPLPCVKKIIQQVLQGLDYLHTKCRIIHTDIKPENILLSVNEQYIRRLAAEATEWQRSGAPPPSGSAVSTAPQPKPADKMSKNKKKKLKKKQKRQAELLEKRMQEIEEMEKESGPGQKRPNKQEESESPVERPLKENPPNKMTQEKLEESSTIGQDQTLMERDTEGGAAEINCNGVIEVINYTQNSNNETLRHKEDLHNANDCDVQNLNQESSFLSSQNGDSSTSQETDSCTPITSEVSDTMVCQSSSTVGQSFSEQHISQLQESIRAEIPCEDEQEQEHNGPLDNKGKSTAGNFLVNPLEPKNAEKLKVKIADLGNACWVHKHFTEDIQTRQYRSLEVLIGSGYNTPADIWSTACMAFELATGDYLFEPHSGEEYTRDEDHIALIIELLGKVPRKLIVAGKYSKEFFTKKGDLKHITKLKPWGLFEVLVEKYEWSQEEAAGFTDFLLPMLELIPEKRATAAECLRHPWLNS", "test": "SelectScreen Z'LYTE", "assay_type": "biochemical", "outline": "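SelectScreen broad panel; activity (Z'LYTE, Adapta) plus binding formats. ATP: Km app for CSF1R Z'LYTE; 10 for CAMK1 Adapta. Readout = % per kinase.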", "data": [{"smiles": "CN(C(=O)CN1CCOCC1)c1ccc2sc3c(-c4cccc5c(=O)cc(N6CC7CCC(C6)O7)oc45)cccc3c2c1", "note": "[NU5455]", "values": [{"measurement": "inhibition at 1 µM", "result": -1.1, "unit": "%"}]}]}
